The results in this text go back to the supplement of paper PMC6965134.

± gives the standard deviation of the averaged measurements.

The data set is described as follows: TIMS collisional cross section (CCS, N2) of the lipid ion; higher = larger ion cross section. The settings on record: ionization mode: positive, one isomer drawn.

Regarding `CCCCCC/C=C\CCCCCCCC(=O)OC[C@H](COC(=O)CCCCCCC/C=C\CCCCCCCC)OC(=O)CCCCCCC/C=C\CCCCCCCC` [TG 16:1_18:1_18:1] (ion (formula + adduct): [C55H100O6+NH4] 1+), the “TIMS collisional cross section” value was found to be 320 Å² (sample type: HeLa) and 320.1 Å² (sample type: plasma).
Consider `CC/C=C\C/C=C\C/C=C\C/C=C\C/C=C\CCCC(=O)O[C@H](COC(=O)CCC/C=C\C/C=C\C/C=C\C/C=C\CCCCC)COP(=O)(O)OCCN` [PE 20:4_20:5] (ion (formula + adduct): [C45H72NO8P+H] 1+), for which the “TIMS collisional cross section” value (sample type: HeLa) was found to be 279.1 Å².
With `CCCCCCCC/C=C\CCCCCCCCCCCCCCCC(=O)N[C@@H](CO)[C@H](O)/C=C/CCCCCCCCCCCCC` [Cer d18:1_26:1@] (ion (formula + adduct): [C44H85NO3+H] 1+), the “TIMS collisional cross section” value runs as follows: (sample type: HeLa) 284.9 Å²; (sample type: Liver) 289.4 Å².
Taken in the same sequence, the figures for `CCCCC/C=C\C/C=C\C/C=C\CCCCCCC(=O)O[C@@H](CO)COC(=O)CCCCCCCCCCCCCCC` [DG 16:0_20:3_0:0] (ion (formula + adduct): [C39H70O5+NH4] 1+) were 264.8 Å² and 264.9 Å².
The corresponding values for `CCCCCCCC/C=C\CCCCCCCCCC(=O)OC[C@@H](COC(=O)CCCCCCCCCCCCC)OC(=O)CCCCCCC/C=C\CCCCCCCC` [TG 14:0_18:1_20:1] (ion (formula + adduct): [C55H102O6+NH4] 1+) are 322.3 Å² and 322.4 Å².
Regarding `CCCCCC/C=C\CCCCCCCCCCOC[C@@H](O)COP(=O)([O-])OCC[N+](C)(C)C` [LPC O- 18:1] (ion (formula + adduct): [C26H54NO6P+H] 1+), the “TIMS collisional cross section” value is on record as 233.6 Å² (sample type: HeLa) and 233.67 ± 0.64 Å² (sample type: plasma).
With `CCCCC/C=C\C/C=C\C/C=C\CCCCCCCCC(=O)OC[C@@H](COC(=O)CCCCCCCCCCCCCCCCC)OC(=O)CCCCCCC/C=C\CCCCCCCC` [TG 18:0_18:1_22:3] (ion (formula + adduct): [C61H110O6+NH4] 1+), the “TIMS collisional cross section” value (sample type: HeLa) is 336.5 Å².
In the case of `CCCC/C=C\CCCCCCCC(=O)O[C@@H](COC(=O)CCCCCCC/C=C\CCCCCC)COC(=O)CCCCCCCCCCCCC` [TG 14:0_14:1_16:1] (ion (formula + adduct): [C47H86O6+NH4] 1+), the “TIMS collisional cross section” value (sample type: HeLa) was 297.4 Å².
Consider `CCCCC/C=C\C/C=C\C/C=C\CCCCCCC(=O)O[C@H](CO/C=C\CCCCCCCCCCCCCC)COP(=O)(O)OCCN` [PE P- 16:0@_20:3] (ion (formula + adduct): [C41H76NO7P+H] 1+), for which the “TIMS collisional cross section” value (sample type: HeLa) is on record as 275.1 Å² and the “TIMS collisional cross section” value (sample type: plasma) is 276.2 Å².
Turning to `CCCCC/C=C\CCCCCCCC(=O)OC[C@H](COC(=O)CCCCCCCCCCCCCCCC)OC(=O)CCCCCCC/C=C\CCCCCC` [TG 15:1_16:1_17:0] (ion (formula + adduct): [C51H94O6+NH4] 1+), the “TIMS collisional cross section” value (sample type: Liver) is 309.9 Å².
Consider `CCCCC/C=C\C/C=C\C/C=C\C/C=C\CCCC(=O)OC[C@@H](COC(=O)CCCCCCCCCCCCC)OC(=O)CCCCCCCCCCCCCCC` [TG 14:0_16:0_20:4] (ion (formula + adduct): [C53H94O6+NH4] 1+), for which the “TIMS collisional cross section” value (sample type: plasma) worked out at 314.2 Å².
Consider `CCCCCC/C=C\CCCCCCCC(=O)OC[C@@H](COC(=O)CCCCCCCCCCCC)OC(=O)CCCCCCCCCCCCCC` [TG 13:0_15:0_16:1] (ion (formula + adduct): [C47H88O6+NH4] 1+), for which the “TIMS collisional cross section” value runs as follows: (sample type: HeLa) 299.7 Å²; (sample type: Liver) 299.6 Å².
On to `CCCCCC/C=C\CCCCCCCC(=O)OC[C@@H](COC(=O)CCCCCCCCCCCC)OC(=O)CCCCCCCCCCCCC` [TG 13:0_14:0_16:1] (ion (formula + adduct): [C46H86O6+NH4] 1+), for which the “TIMS collisional cross section” value by setting is: (sample type: HeLa) 296.4 Å²; (sample type: Liver) 296 Å²; (sample type: plasma) 296.1 Å².
With `CCCCCC/C=C\CCCCCCCC(=O)O[C@@H](CO)COC(=O)CCCCCCCCCCCCC` [DG 14:0_16:1_0:0] (ion (formula + adduct): [C33H62O5+NH4] 1+), under “sample type: HeLa”, the “TIMS collisional cross section” value is given as 248.3 Å².
For `CCC/C=C\CCCCCCCC/C=C/[C@@H](O)[C@H](COP(=O)([O-])OCC[N+](C)(C)C)NC(=O)CCCCCCCCCCCCCCC` [SM d18:2_16:0@] (ion (formula + adduct): [C39H77N2O6P+H] 1+), the “TIMS collisional cross section” value is, setting by setting: (sample type: HeLa) 281.4 Å²; (sample type: plasma) 281.3 Å².
In the case of `CCCCCCCCC/C=C\CCCCCCCC(=O)OC[C@@H](COC(=O)CCCCCCCCCCCCCCC)OC(=O)CCCCCCCCCCCCCCC` [TG 16:0_16:0_19:1] (ion (formula + adduct): [C54H102O6+NH4] 1+), the “TIMS collisional cross section” value (sample type: HeLa) stood at 321.5 Å².
On to `CCCCCCCC/C=C/CCCCCCCC(=O)OC[C@H](COP(=O)(O)OCCN)OC(=O)CCCCCCC/C=C/CCCCCCCC` [PE 18:1_18:1] (ion (formula + adduct): [C41H78NO8P+Na] 1+), for which the “TIMS collisional cross section” value is, setting by setting: (sample type: HeLa) 279.7 Å²; (sample type: plasma) 280.6 Å².
With `CCCCC/C=C\C/C=C\CCCCCCCC(=O)OC[C@@H](O)COP(=O)(O)OCCN` [LPE 18:2] (ion (formula + adduct): [C23H44NO7P+H] 1+), the “TIMS collisional cross section” value was 211.45 ± 1.1 Å² (sample type: Liver) and 214.1 Å² (sample type: plasma).
As to `CCCCCCCC/C=C\CCCCCCCC(=O)OC[C@H](COC(=O)CCCCCCCCCCCCCCCCCCCCC)OC(=O)CCCCCCCCCCCCCCCCCCC` [TG 18:1_20:0_22:0] (ion (formula + adduct): [C63H120O6+NH4] 1+), the “TIMS collisional cross section” value runs as follows: (sample type: HeLa) 346.3 Å²; (sample type: plasma) 347.4 Å².
For the compound `CCCCCCCC/C=C\CCCCCCCC(=O)O[C@H](COC(=O)CCCCCCCCCCCCCCCCC)COP(=O)(O)OCCN` [PE 18:0_18:1] (ion (formula + adduct): [C41H80NO8P+H] 1+), the “TIMS collisional cross section” value (sample type: HeLa) is listed as 282.2 Å².
With `CCCCC/C=C\C/C=C\CCCCCCCC(=O)O[C@H](COC(=O)CCCCCCCCCCCCCCCCC)COP(=O)(O)OCCN` [PE 18:0_18:2] (ion (formula + adduct): [C41H78NO8P+H] 1+), the “TIMS collisional cross section” value by setting is: (sample type: Liver) 279.7 Å²; (sample type: plasma) 279.8 Å².
With `CCCCCC/C=C\CCCCCCCC(=O)O[C@@H](CO)COC(=O)CCCCCCC/C=C\CCCCCCCCC` [DG 19:1_16:1_0:0] (ion (formula + adduct): [C38H70O5+NH4] 1+), the “TIMS collisional cross section” value (sample type: HeLa) is 261.1 Å².
`CC/C=C\C/C=C\C/C=C\C/C=C\C/C=C\C/C=C\CCC(=O)OC[C@@H](COC(=O)CCCCCCC/C=C\CCCCCC)OC(=O)CCCCCCC/C=C\CCCCCC` [TG 16:1_16:1_22:6] (ion (formula + adduct): [C57H94O6+NH4] 1+): the “TIMS collisional cross section” value runs as follows: (sample type: HeLa) 318.5 Å²; (sample type: Liver) 317.3 Å².
In the case of `CCCCC/C=C\C/C=C\CCCCCCCCCCCC(=O)O[C@@H](CO)COC(=O)CCCCCCC/C=C\C/C=C\CCCCC` [DG 18:2_22:2_0:0] (ion (formula + adduct): [C43H76O5+NH4] 1+), the “TIMS collisional cross section” value (sample type: Liver) is listed as 272.5 Å².
`CC/C=C\C/C=C\C/C=C\C/C=C\C/C=C\CCCC(=O)O[C@@H](CO)COC(=O)CCCCCCC/C=C\CCCCCCCC` [DG 18:1_20:5_0:0] (ion (formula + adduct): [C41H68O5+H] 1+): the “TIMS collisional cross section” value (sample type: plasma) is reported as 271.1 Å².
Same read-out and setting: next, `CCCCC/C=C\C/C=C\C/C=C\C/C=C\CCCC(=O)OC[C@@H](COC(=O)CCCCCCCCCCCCCCC)OC(=O)CCCCCCC/C=C\C/C=C\CCCCC` [TG 16:0_18:2_20:4] (ion (formula + adduct): [C57H98O6+NH4] 1+): 321.2 Å².
As to `CCCCCCC/C=C\CCCCCCCC(=O)O[C@H](COCCCCCCCCCCCCCCCC)COP(=O)([O-])OCC[N+](C)(C)C` [PC O- 16:0@_17:1] (ion (formula + adduct): [C41H82NO7P+H] 1+), for the setting “sample type: HeLa”, the “TIMS collisional cross section” value was determined as 287.7 Å².
For the compound `CCCCC/C=C\C[C@H](O)/C=C/C=C\C/C=C\CCCC(=O)O[C@H](COC(=O)CCCCCCCCCCCCCCC)COP(=O)([O-])OCC[N+](C)(C)C` [Oxidized PC 16:0@_20:4] (ion (formula + adduct): [C44H80NO9P+H] 1+), the “TIMS collisional cross section” value (sample type: plasma) was 289.9 ± 0.36 Å².
With `CCCCC/C=C\CCCCCCCC(=O)O[C@H](COC(=O)CCCCCCCCCCCCC)COC(=O)CCCCCCCCCCCCCCC` [TG 14:0_15:1_16:0] (ion (formula + adduct): [C48H90O6+NH4] 1+), the “TIMS collisional cross section” value (sample type: Liver) amounted to 303.1 Å².
For the compound `CCCCC/C=C\C/C=C\CCCCCCCCCCCC(=O)OC[C@@H](COC(=O)CCCCCCC/C=C\CCCCCCCC)OC(=O)CCCCCCCCCCC/C=C\CCCCCCCC` [TG 18:1_22:1_22:2] (ion (formula + adduct): [C65H118O6+NH4] 1+), the “TIMS collisional cross section” value (sample type: Liver) is listed as 346.9 Å².
On to `CCCCC/C=C\C/C=C\CCCCCCCC(=O)O[C@H](COC(=O)CCCCCCC/C=C\CCCCCC)COP(=O)([O-])OCC[N+](C)(C)C` [PC 16:1_18:2@] (ion (formula + adduct): [C42H78NO8P+H] 1+), for which the “TIMS collisional cross section” value (sample type: HeLa) stood at 281 Å².
For the compound `CCCCC/C=C\C/C=C\CCCCCCCC(=O)O[C@H](COC(=O)CCCCCCCCCCCCCCCCCCC)COP(=O)([O-])OCC[N+](C)(C)C` [PC 20:0_18:2] (ion (formula + adduct): [C46H88NO8P+H] 1+), the “TIMS collisional cross section” value (sample type: Liver) worked out at 297.5 Å².
Take `CCCCCC/C=C\CCCCCCCC(=O)OC[C@@H](COC(=O)CCCCCCCCCCC)OC(=O)CCCCCCCCCCCCCCC` [TG 12:0_16:0_16:1] (ion (formula + adduct): [C47H88O6+NH4] 1+): the “TIMS collisional cross section” value (sample type: Liver) amounted to 299.2 Å².
